Laboratory results as given in the supplement of paper PMC10307832.

Experiments:
[1] = compound: CC1(C)CNc2cc(NC(=O)c3cccnc3NCc3ccncc3)ccc21 [Motesanib] + COc1cc2c(Oc3ccc(NC(=O)C4(C(=O)Nc5ccc(F)cc5)CC4)cc3F)ccnc2cc1OCCCN1CCOCC1 [Foretinib] (partner 0.25 µM); assay: relative viability (nuclei count vs DMSO), 5 days (fraction); higher = more cells survive
How it was run: (§1)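 Relative viability is defined as nuclei in treated wells over nuclei in vehicle wells. Duplicate plates were run and medians reported. Lung cancer cell lines in 1536-well plates were dosed by pin tool one day after seeding, with one drug or with a fixed anchor-drug dose plus five library-drug doses (not always all listed) in √10 steps, and nuclei were counted after 5 days.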

[2] = compound: C[C@@]1(C(=O)Nc2ccc(F)nc2)CCCN1c1nc(Nc2cc(C3CC3)n[nH]2)c2cccn2n1 + Cc1cc(Nc2cc(N3CCN(C)CC3)nc(Sc3ccc(NC(=O)C4CC4)cc3)n2)n[nH]1 [Tozasertib] (partner 0.1 µM); assay: as above
How it was run: as §1

| Cell Line | relative viability ([1]; first compound 0.01 µM) | relative viability ([1]; first compound 0.03162 µM) | relative viability ([1]; first compound 0.1 µM) | relative viability ([1]; first compound 0.3162 µM) | relative viability ([1]; first compound 1 µM) | relative viability ([2]; first compound 0.04 µM) | relative viability ([2]; first compound 0.1265 µM) | relative viability ([2]; first compound 0.4 µM) | relative viability ([2]; first compound 1.265 µM) |
| --- | --- | --- | --- | --- | --- | --- | --- | --- | --- |
| NCI-H441 | 0.889 | 0.922 | 1.13 | 1 | 1.03 | 0.496 | 0.403 | 0.349 | 0.369 |
| EPLC-272H | 0.659 | 0.744 | – | 0.663 | 0.799 | 0.182 | – | 0.178 | 0.287 |
